Assays:
Assay type in all cases: binding
[1] = biological target: T1, kinases (KINOMEscan panel) (Homo sapiens, UniProt O14965); conditions: NEW KINOMEscan
T1 sequence (O14965 1-403): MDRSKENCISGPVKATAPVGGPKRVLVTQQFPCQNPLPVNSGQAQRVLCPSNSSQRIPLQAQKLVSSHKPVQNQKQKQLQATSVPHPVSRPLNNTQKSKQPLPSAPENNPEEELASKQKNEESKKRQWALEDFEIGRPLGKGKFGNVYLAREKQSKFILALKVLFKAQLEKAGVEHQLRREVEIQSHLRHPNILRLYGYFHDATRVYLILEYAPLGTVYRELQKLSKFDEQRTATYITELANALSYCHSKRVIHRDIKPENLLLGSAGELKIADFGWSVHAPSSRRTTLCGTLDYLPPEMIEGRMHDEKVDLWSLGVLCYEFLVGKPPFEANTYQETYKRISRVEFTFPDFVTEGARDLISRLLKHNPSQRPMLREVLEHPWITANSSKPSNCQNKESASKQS

[2] = biological target: T2, kinases (KINOMEscan panel) (Homo sapiens, UniProt O15075); conditions: NEW KINOMEscan
T2 sequence (O15075 1-740): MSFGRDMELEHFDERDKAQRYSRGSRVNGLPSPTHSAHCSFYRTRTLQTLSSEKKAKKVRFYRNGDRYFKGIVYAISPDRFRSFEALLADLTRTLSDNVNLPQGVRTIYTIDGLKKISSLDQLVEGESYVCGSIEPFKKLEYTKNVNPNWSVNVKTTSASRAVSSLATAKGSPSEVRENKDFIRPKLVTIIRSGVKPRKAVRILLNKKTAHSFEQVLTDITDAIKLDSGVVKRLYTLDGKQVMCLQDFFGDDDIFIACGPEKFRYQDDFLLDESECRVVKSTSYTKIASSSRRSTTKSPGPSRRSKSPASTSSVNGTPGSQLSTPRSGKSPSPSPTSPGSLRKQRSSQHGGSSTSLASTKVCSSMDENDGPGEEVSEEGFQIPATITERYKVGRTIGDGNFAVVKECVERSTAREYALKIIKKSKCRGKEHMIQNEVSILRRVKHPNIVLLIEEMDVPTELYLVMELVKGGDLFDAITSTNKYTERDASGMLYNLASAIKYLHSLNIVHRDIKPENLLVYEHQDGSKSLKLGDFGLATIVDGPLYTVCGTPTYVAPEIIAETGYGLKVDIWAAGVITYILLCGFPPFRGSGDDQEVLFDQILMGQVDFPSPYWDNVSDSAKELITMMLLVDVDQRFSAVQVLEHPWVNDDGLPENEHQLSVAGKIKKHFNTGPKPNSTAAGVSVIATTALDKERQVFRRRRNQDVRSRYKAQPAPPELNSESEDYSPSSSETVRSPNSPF

[3] = biological target: kinases (KINOMEscan panel) (Homo sapiens, UniProt P04626); conditions: kinase ERBB2; NEW KINOMEscan
[4] = biological target: kinases (KINOMEscan panel) (Homo sapiens, UniProt P07949); conditions: kinase RET; NEW KINOMEscan
[5] = biological target: kinases (KINOMEscan panel) (Homo sapiens, UniProt P19525); conditions: kinase ElF2AK2; NEW KINOMEscan
[6] = biological target: kinases (KINOMEscan panel) (Homo sapiens, UniProt P36888, N841I); conditions: FLT3(N841I); NEW KINOMEscan
[7] = biological target: kinases (KINOMEscan panel) (Homo sapiens, UniProt P53355); conditions: kinase DAPK1; NEW KINOMEscan
[8] = biological target: kinases (KINOMEscan panel) (Homo sapiens, UniProt P53667); conditions: kinase LIMK1; NEW KINOMEscan
[9] = biological target: kinases (KINOMEscan panel) (Homo sapiens, UniProt Q00536); conditions: kinase CDK16; NEW KINOMEscan
[10] = biological target: kinases (KINOMEscan panel) (Homo sapiens, UniProt Q13177); conditions: PAK2; NEW KINOMEscan
[11] = biological target: T3, kinases (KINOMEscan panel) (Homo sapiens, UniProt Q8NE63); conditions: kinase HIPK4; NEW KINOMEscan
T3 sequence (Q8NE63 1-616): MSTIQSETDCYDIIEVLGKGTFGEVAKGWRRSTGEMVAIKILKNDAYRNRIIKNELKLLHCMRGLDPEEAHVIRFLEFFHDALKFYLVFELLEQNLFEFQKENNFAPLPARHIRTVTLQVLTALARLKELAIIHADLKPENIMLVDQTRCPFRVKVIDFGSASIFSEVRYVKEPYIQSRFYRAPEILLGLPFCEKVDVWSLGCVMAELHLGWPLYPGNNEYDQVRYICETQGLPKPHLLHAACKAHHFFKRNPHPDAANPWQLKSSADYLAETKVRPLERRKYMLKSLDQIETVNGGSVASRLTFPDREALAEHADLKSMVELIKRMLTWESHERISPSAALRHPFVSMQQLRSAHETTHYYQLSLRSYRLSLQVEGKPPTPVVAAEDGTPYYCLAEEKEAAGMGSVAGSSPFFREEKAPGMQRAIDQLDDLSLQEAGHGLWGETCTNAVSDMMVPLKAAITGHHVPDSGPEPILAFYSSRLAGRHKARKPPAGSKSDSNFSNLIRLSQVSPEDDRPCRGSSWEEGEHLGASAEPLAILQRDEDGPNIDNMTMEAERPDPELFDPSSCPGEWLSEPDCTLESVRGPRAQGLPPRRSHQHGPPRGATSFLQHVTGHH

[12] = biological target: kinases (KINOMEscan panel) (Homo sapiens, UniProt Q96GD4); conditions: kinase AURKB; NEW KINOMEscan
[13] = biological target: kinases (KINOMEscan panel) (Homo sapiens, UniProt Q9BYT3); conditions: kinase STK33; NEW KINOMEscan
[14] = biological target: kinases (KINOMEscan panel) (Homo sapiens, UniProt Q9P0L2); conditions: NEW KINOMEscan

Sequence of kinases (KINOMEscan panel) (Homo sapiens, UniProt P07949) (P07949 29-1114): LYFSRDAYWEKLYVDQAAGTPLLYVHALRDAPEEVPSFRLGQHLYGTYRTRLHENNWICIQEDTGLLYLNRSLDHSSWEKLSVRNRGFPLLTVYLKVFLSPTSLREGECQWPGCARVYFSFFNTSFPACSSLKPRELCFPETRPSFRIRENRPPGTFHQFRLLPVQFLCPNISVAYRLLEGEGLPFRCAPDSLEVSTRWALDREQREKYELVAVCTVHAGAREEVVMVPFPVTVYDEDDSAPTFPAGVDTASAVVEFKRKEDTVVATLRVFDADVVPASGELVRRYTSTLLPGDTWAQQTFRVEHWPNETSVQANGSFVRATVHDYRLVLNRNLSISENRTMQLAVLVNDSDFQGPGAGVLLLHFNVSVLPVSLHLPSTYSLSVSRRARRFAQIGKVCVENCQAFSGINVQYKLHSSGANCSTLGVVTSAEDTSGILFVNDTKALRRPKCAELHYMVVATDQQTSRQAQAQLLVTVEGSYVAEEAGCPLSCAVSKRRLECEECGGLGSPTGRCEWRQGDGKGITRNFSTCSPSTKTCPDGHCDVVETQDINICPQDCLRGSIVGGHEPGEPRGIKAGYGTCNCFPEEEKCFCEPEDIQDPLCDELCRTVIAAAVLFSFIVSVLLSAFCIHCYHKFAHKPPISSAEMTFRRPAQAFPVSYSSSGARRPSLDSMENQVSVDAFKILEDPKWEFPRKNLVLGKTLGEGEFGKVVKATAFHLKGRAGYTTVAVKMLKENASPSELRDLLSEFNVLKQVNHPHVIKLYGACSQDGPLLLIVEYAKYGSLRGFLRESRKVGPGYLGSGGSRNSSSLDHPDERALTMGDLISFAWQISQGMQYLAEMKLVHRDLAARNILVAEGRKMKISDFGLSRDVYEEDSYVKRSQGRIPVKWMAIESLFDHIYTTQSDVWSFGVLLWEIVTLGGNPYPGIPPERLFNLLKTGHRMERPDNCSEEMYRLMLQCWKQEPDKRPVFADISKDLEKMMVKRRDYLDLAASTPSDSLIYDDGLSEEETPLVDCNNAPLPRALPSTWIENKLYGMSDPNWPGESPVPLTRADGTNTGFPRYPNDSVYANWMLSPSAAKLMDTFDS
Sequence of kinases (KINOMEscan panel) (Homo sapiens, UniProt P53667) (P53667 whole entry): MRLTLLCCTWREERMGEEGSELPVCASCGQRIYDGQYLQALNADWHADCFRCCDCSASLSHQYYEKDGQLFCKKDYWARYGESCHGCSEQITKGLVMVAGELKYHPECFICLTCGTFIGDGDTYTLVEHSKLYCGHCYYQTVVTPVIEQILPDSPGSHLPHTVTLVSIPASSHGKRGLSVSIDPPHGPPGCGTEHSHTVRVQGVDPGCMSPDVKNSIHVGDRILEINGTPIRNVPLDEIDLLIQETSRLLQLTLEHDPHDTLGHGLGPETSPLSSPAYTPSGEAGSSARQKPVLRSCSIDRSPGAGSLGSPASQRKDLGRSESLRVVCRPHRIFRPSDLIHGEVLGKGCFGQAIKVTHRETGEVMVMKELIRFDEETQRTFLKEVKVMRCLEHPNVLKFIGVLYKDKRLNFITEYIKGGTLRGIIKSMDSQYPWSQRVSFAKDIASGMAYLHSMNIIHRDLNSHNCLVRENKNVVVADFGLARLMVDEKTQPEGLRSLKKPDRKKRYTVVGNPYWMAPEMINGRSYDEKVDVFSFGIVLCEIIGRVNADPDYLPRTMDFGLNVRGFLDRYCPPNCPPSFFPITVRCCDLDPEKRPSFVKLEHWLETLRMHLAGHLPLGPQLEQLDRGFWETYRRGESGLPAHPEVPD
Sequence of kinases (KINOMEscan panel) (Homo sapiens, UniProt P04626) (P04626 23-1255): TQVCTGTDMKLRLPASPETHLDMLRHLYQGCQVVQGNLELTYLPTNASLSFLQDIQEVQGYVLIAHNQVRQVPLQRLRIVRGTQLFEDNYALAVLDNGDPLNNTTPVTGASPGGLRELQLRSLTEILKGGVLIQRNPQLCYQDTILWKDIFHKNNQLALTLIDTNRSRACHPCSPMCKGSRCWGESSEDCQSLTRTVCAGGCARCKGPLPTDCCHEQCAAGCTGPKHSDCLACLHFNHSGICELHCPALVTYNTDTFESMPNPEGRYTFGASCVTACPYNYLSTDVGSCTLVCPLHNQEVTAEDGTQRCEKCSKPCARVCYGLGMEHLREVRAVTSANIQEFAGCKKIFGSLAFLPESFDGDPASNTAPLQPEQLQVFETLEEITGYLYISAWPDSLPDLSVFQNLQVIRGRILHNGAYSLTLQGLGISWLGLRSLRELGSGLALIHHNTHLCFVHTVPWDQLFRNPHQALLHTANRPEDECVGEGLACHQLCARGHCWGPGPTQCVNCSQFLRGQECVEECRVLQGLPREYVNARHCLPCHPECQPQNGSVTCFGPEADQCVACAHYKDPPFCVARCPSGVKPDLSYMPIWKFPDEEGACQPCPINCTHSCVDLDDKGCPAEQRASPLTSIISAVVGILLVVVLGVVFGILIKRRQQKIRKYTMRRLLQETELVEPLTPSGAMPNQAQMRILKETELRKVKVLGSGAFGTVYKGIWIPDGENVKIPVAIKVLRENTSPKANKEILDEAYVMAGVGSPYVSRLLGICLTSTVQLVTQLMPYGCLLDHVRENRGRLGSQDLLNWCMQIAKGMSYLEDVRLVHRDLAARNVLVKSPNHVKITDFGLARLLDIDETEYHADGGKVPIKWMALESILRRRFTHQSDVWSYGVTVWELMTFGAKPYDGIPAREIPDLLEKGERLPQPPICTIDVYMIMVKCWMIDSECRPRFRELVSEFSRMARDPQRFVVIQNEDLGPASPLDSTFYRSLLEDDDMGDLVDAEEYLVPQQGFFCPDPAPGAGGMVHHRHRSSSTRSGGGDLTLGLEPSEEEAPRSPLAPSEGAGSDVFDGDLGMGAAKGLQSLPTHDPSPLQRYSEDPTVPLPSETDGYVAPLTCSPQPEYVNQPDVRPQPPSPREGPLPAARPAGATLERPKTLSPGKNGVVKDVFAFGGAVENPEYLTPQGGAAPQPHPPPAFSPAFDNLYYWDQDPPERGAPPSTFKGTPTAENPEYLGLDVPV
Sequence of kinases (KINOMEscan panel) (Homo sapiens, UniProt P19525) (P19525 whole entry): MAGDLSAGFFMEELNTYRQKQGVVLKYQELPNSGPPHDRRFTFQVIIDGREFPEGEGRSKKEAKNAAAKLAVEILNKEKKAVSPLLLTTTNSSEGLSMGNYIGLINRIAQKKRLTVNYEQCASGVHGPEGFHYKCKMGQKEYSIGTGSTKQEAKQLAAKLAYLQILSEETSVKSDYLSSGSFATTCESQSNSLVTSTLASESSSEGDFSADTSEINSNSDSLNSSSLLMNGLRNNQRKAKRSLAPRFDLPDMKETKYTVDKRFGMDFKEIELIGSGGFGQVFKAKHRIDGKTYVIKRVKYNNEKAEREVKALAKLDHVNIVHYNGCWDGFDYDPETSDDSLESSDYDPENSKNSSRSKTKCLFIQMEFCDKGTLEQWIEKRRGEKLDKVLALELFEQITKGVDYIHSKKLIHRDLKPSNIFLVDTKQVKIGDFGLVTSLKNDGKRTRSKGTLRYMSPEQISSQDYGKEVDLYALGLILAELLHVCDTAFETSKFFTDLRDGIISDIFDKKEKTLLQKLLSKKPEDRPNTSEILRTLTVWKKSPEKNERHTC
Sequence of kinases (KINOMEscan panel) (Homo sapiens, UniProt P53355) (P53355 whole entry): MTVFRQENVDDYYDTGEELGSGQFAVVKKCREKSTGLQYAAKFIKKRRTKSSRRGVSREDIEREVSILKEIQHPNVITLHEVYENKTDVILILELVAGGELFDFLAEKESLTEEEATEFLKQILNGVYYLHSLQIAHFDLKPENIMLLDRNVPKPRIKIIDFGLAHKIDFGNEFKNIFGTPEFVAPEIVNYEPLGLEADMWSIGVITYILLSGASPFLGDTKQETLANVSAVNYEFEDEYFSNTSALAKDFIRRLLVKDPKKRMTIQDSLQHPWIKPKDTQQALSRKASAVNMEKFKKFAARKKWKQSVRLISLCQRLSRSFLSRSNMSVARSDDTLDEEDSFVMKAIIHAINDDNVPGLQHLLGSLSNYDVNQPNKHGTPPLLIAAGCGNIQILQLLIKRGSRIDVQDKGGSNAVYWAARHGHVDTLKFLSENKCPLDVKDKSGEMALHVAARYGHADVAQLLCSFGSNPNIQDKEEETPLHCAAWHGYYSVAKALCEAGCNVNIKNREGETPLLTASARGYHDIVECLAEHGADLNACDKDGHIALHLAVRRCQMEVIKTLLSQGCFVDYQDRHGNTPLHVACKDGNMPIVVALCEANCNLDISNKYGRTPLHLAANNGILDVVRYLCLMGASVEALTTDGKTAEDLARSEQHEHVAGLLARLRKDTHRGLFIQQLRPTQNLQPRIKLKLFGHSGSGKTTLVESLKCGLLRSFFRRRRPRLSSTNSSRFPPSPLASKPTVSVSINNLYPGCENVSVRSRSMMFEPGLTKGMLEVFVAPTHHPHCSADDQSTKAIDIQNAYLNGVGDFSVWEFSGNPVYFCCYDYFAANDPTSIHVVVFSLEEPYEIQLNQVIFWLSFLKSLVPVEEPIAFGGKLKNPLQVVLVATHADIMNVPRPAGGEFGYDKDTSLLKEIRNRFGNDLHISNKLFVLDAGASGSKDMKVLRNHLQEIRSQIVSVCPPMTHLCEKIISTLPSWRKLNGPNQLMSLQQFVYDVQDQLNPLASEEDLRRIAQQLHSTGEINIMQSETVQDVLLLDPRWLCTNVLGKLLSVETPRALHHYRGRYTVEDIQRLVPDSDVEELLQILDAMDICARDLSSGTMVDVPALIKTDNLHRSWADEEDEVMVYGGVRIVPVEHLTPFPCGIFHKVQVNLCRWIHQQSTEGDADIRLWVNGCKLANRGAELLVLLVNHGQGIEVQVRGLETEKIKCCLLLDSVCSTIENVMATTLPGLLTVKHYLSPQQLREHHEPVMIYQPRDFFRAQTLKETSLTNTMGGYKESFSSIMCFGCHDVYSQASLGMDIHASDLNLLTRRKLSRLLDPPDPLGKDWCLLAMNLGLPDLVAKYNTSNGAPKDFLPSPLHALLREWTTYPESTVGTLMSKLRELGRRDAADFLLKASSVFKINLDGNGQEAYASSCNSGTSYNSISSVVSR

| SMILES | KINOMEscan AURKA [1] | KINOMEscan DCLK1 [2] | KINOMEscan ERBB2 [3] | KINOMEscan RET [4] | KINOMEscan ElF2AK2 [5] | KINOMEscan FLT3(N841I) [6] | KINOMEscan DAPK1 [7] | KINOMEscan LIMK1 [8] | KINOMEscan CDK16 [9] | KINOMEscan PAK2 [10] | KINOMEscan HIPK4 [11] | KINOMEscan AURKB [12] | KINOMEscan STK33 [13] | KINOMEscan MARK1 [14] |
| --- | --- | --- | --- | --- | --- | --- | --- | --- | --- | --- | --- | --- | --- | --- |
| Cc1cccc(-c2nc(Nc3ccc4nn(C)cc4c3)c3ccccc3n2)n1 [NK167] | 3 | 49 | 0 | 0 | 19 | 3 | 0 | 0 | 0 | 0 | 7 | 0 | 0 | 21 |
| Cc1cccc(-c2nc(N(C)c3ccc4ncsc4c3)c3ccccc3n2)n1 [NK-161] | 22 | 36 | 0 | 0 | 7 | 0 | 0 | 0 | 0 | 0 | 25 | 0 | 0 | 13 |
